Measured values taken from PMC7156724, “Potent BRD4 inhibitor suppresses cancer cell-macrophage interaction” (Nature Communications, 2020).

What was measured:
TAMs = assay: Transwell 3D co-culture of pretreated A2780 cells and TAMs, spheroid volume; type: cell-based, mouse
Description: A2780 tumor cells were pretreated with 100 nM NHWD-870 and then directly co-cultured with TAMs (A2780:TAMs ratio as 4:1) at the density of 1 × 10^5 total cells in a 12-well. Shown are immunofluorescent staining of Ki67 and CD68 (a) and quantification of Ki67+ and CD68− or CD68+ cells (b). Scale bar is 50 μm. […] A2780 cells (pre-treated with or without 100 nM NHWD-870 for 48 h) were seeded into the top chamber (transwell size: 0.4 μm) and TAMs (Mac, 40,000 cells per 24-well) in medium containing 2% matrigel were seeded into the bottom chamber pre-coated with Matrigel. No NHWD-870 was added to the co-culture. The upper chamber without A2780 cells was used as a control. Shown are schematics of transwell co-culture experiment (c), representative pictures of TAM spheroid (d: black/white), and quantification of spheroid volumes (e). Scale bar is 50 μm. […] Data are presented as mean ± SEM from three independent experiments. g CSF1 protein levels in supernatant of 10^6 ID8, B16, A2780, SKOV3, and A375 cells treated with DMSO or 25 nM NHWD-870 for 24 h, as measured by ELISA. […] Scale bar is 20 μm. i Quantification of CSF1 staining in DMSO or 100 nM NHWD-870 treated A2780 cells. […] Shown are representative immunofluorescent staining of CSF1 (green) and CD68 (red) (j) and quantification of CSF1 staining (k). […]

HIF1α protein = assay: Western blot of HIF1α in A375 and A2780 cells at 20% or 1% O2; type: cell-based, human; details: 25 nM, 20% or 1% O2, 24 h
Description: Fig. 7 NHWD-870 inhibited CSF1 expression through suppressing BRD4 and HIF1α in tumor cells. a, b Representative western blot analysis of control (Ctrl) and BRD4 knockout (KO) A375 and A2780 cells exposed to 20% or 1% O2 for 24 hours. Selected from three independent experiments. c, d Representative western blot analysis of A375 and A2780 cells treated with DMSO or 25 nM NHWD-870 and exposed to 20% or 1% O2 for 24 h. Selected from three independent experiments. e Relative HIF1 luciferase reporter activity in control (Ctrl), BRD4 knockout (KO), or NHWD-870 treated A375 and A2780 cells exposed to 20% or 1% O2 for 24 h. […] NHWD-870 inhibits the proliferation and survival of TAMs partly by inhibiting BRD4 activity, HIF1α expression, and CSF1 secretion by tumor cells, and downregulating CSF1R mediated ERK and PI3K/AKT signaling in TAMs. p values were calculated using two-tailed, unpaired t tests in this figure. *p < 0.05; **p < 0.01; ***p < 0.001. […]
of treatment, 10 μl AlamarBlue reagent (0.3 mg/ml) was added to each well, and after 18h, the florescence intensity in each well was measured using a top-reading fluorescent plate reader with excitation at 530 nm and emission at 590 nm.
4. […] Supernatants were collected and determined with a Bradford Protein Assay kit (Bio-Rad, Hercules, CA). […]
every week. […] Colony numbers were calculated with imageJ version

Cc1nnn(C)c1-c1cnc2c3c4cnn(C)c4ccc3n([C@H](c3ccccc3)C3CCOCC3)c2c1 [NHWD-870]
fold decrease of the growth of TAMs (TAMs; 100 nM, 3-D culture, Fig 5c-e): about 8 fold
ability of A2780 to support the growth of TAMs (TAMs; A2780 pretreated with 100 nM, 3D co-culture): completely abolished the ability of A2780 to support the growth of TAMs
HIF1α protein (western blot) (HIF1α protein): decreased HIF1α protein
